From paper PMC8302598, “Rapid discovery of self-assembling peptides with one-bead one-compound peptide library” (Nature Communications, 2021)

Legend:
[1] = test system: HeLa cells; experiment: Cell uptake pathway analysis (4 °C and endocytosis inhibitors); type: cell-based; conditions: for Cell uptake in the presence of amiloride and M-β-CD: 50 μM peptide; for Cell uptake in the presence of amiloride and M-β-CD / Cell uptake mechanism: amiloride 2 mM, M-β-CD 5 mM; for Cell uptake at 4 °C: FITC-labeled nano-assembly (3% labeled), 4 °C vs 37 °C; for Cell uptake mechanism: 50 μM, 37 or 4 °C, chlorpromazine 50 μM, CLSM, n=3
Method: Finally, we examined the biological effects and cellular distribution of the eight self-assembling peptides on HeLa cells. […] In order to observe the nanomaterials under fluorescent microscopy, each peptide preparation was spiked with 3% of the same peptide N-terminally labeled with FITC, and then added to HeLa cells at a final concentration of 40 μM. […] After 4 h of incubation with the peptide assemblies, the cells were observed under a fluorescent microscope (Figs. 4c, d and Supplementary 22). […] It is important to note that LDFPI nanoparticle was small (8 nm diameter) even after 4 h incubation. Its small size may in part explain its ability to pass through the nuclear pore complexes[32],[33]. […] To evaluate the cell uptake mechanism of peptide assemblies (YFTEF, ISDNL, and FGFDP) into the cytoplasm, we treated the cells at 4 °C or with various endocytosis inhibitors (Supplementary Fig. 23). […]
Supplementary Figure 23 . Cell uptake pathway analysis for FITC-labeled pentapeptide assemblies YFTEF, ISDNL and […]. a) CLSM images of HeLa cells incubated with pentapeptides (50 μ M ) at di fferent temperatures (37 or 4 °C) and in the presence of various endocytosis inhibitors, such as amiloride (2 mM), M-β-CD (5 mM), and chlorpromazine (50 μM). The scale bar is 10 μm. b) Relevant quantitative analysis of images from ‘a’. 3% of the assembled peptides was N-terminally labeled with FITC, E rror ba rs represent Standard Deviation (n=3). […]
(§1) To elucidate the cell uptake pathways of pentapeptides, we quantified the fluorescence intensity of the HeLa cells after incubation with FITC-labeled nano-assembly of YFTEF, ISDNL, FAGFT, FGFDP, at 37 and 4 °C, respectively (3% of the peptide assembly were N-terminally labeled with FITC for tracking). There were nearly no uptake of pentapeptides by HeLa cells at 4 °C, which is consistent with mechanism of cell uptake by endocytosis. We have also examined the effects of cell uptake by various endocytosis inhibitors: amiloride (2 mM, inhibitor of endocytosis), M-β-CD (5 mM, inhibitor of caveolae-dependent endocytosis), and chlorpromazine (50 μM, inhibitor of clathrin-dependent endocytosis).
(§2) (1 picture or pasted object on this page, not shown here)
Figure R11. Cell uptake pathway detection. a) CLSM images of HeLa cells incubated with pentapeptides (50 μM) at different temperatures (37 or 4 °C) and in the presence of various endocytosis inhibitors, such as amiloride (2 mM), M-13-CD (5 mM), and chlorpromazine(50 μM), respectively. The scale bar is 10 μm. b) Relevant quantitative analysis in ‘a’. […]

[2] = Self-assembly of resynthesized soluble pentapeptides; type: physicochemical; conditions: self-assembly under aqueous environment
Source text: Once the screening method has been validated with our model KLVFF peptide, a totally random pentapeptide library with 19[5] permutations (cysteine was omitted from the library) was constructed using our previously published methods (Supplementary Fig. 3)[23]. Again, TentaGel S resin (loading of 0.31 mmol/g) was used as the solid support. The pentapeptides in the library were N-terminally capped with NBD. […] The positive bead with an intense fluorescent signal (pointed with a solid arrow) was noted. The rest of the beads were considered negative or weak positive beads. From a total of approximately 100 000 beads screened, we selected a total of eight strongest fluorescent positive beads and four dark beads as negative beads. The peptides were then resynthesized in soluble form and purified by high-performance liquid chromatography (HPLC) for testing (Supplementary Figs. 4–12). The amino acid sequences of the eight self-assembling pentapeptides are FTISD, ITSVV, YFTEF, ISDNL, LDFPI, FAGFT, FGFDP, and FFVDF. Not unexpectedly, of the 40 amino acids in these eight pentapeptides, 50% are hydrophobic residues, predominated by Phe (11 Phe, 4 Ile, 3 Val, and 2 Leu). For the remaining 20 amino acids, six are acidic residues (5 Asp and 1 Glu) and seven are neutral and hydrophilic (4 Thr and 3 Ser). The rest are 2 Pro, 2 Gly, 1 Tyr, 1 Asn, and 1 Ala. All eight peptides have at least two hydrophobic residues. Six out of the eight peptides have one negatively charged residue (Asp or Glu). The remaining two peptides are neutral. […] For the Pro containing pentapeptides, LDFPI and FGFDP, the Pro residue, which promotes peptide turns, resides at the fourth and fifth positions, but not in the middle. Not unexpectedly, all the four randomly selected negative non-assembling peptides (RITTR, PLVKA, PFTTR, and QIMRW) have very different sequences, and contain at least one positive charged amino acid.
To estimate the propensity of the identified peptides to self-assemble, the critical micelle concentrations (CMC) of the eight positive peptides and four negative peptides were determined, and the results are shown in Table 1 and Supplementary Figs. 13, 14. The CMC of all the eight positive peptides were detectable and found to range between 8.4 and 14.8 μM, indicating the propensity for these peptides to self-assemble under aqueous environment. […] Hydrophobicity of peptides can be predicted by the value of GRAVY[28] with more negative value for more hydrophilic peptides. Of the four negative assembling peptides, two have a negative GRAVY value. […] Experimental testing, such as the screening strategy described in this work, is needed. This is because multiple factors, including hydrophobicity, hydrogen-bonding, electrostatic interactions, and positions of each residue within the peptides, all contribute to the assembling and final morphology of the self-assembled nano-structure. […]

[3] = test system: HeLa cells; experiment: Cell uptake efficiency by fluorescence of lysed cells; type: cell-based; conditions: HeLa cells incubated with peptides 4 h, fluorescence quantified
Method: and FGFDP entered lysosome and then escaped. The ISDNL escaped in 4 h, and FGFDP escaped between 1-2 h. Both ISDNL and FGFDP had capability of lysosomal escape, which may be useful for gene or nucleic acid delivery, as implied by the reviewer.
Figure R10. a. Time-dependent CLSM images for monitoring and quantitatively analyzing HeLa cells incubated with 50 μM pentapeptide nano-assembly of YFTEF, ISDNL, and FGFDP, b. corresponding co-localization analysis of experiment shown in “a”.
To confirm how efficient the peptides (YFTEF, ISDNL, and FGFDP) enter living cells, HeLa cells were incubated with peptides for 4 h, the cells were then lysed and fluorescence quantified to calculate the […]
Table R2. Cell uptake efficiency of peptides. […]
as §1, §2

| Substance | Cell uptake in the presence of amiloride and M-β-CD [1] | Cell uptake at 4 °C [1] | Assembly [2] | Cell uptake mechanism [1] | Cell uptake efficiency [3] [%] |
| --- | --- | --- | --- | --- | --- |
| FAGFT [self-assembling pentapeptide identified from OBOC library] | significantly decreased | nearly no uptake | Yes | – | – |
| FFVDF [self-assembling pentapeptide identified from OBOC library, forms nanofibers] | – | – | Yes | – | – |
| FGFDP [self-assembling pentapeptide identified from OBOC library] | – | nearly no uptake | Yes | both caveolae-dependent and clathrin-dependent endocytosis | 4.8 |
| FTISD [self-assembling pentapeptide identified from OBOC library] | – | – | Yes | – | – |
| ISDNL [self-assembling pentapeptide identified from OBOC library] | significantly decreased | nearly no uptake | Yes | caveolae-dependent endocytosis and micropinocytosis | 2.2 |
| ITSVV [self-assembling pentapeptide identified from OBOC library] | – | – | Yes | – | – |
| LDFPI [self-assembling pentapeptide identified from OBOC library] | – | – | Yes | – | – |
| YFTEF [self-assembling pentapeptide identified from OBOC library] | – | nearly no uptake | Yes | clathrin dependent endocytosis | 3.9 |
